Results: article PMC7933930, “Development of a small molecule that corrects misfolding and increases secretion of Z α1‐antitrypsin” (EMBO Molecular Medicine, 2021)

Key:
mouse hepatocytes = assay: Hepatocyte clearance, mouse; assay type: in vitro ADME
Procedure: Williams E media supplemented with 2 mM L‐glutamine and 25 mM HEPES and test compound (final compound concentration 0.5 µM; final DMSO concentration 0.25% v/v) were preincubated at 37°C prior to the addition of a suspension of cryopreserved pooled hepatocytes (final cell density 0.5 × 10^6 viable cells/ml) to initiate the reaction. The final incubation volume was 500 µl. The reactions were stopped by transferring 50 µl of incubate to 100 µl acetonitrile containing internal standard at the appropriate time points (0, 5, 10, 20, 40 and 60 min, 0, 10, 20, 40, 60 and 120 min or 0, 20, 40, 60, 120 and 240 min). The control (lysed cells or vehicle) was incubated for 60, 120 or 240 min only. The termination plates were centrifuged at 2,500 rpm at 4°C for 30 min to precipitate the protein. Following protein precipitation, the sample supernatants were analysed by LC‐MS/MS. From a plot of loge peak area ratio (compound peak area/internal standard peak area) against time, the gradient of the line was determined and half‐life (t½) and intrinsic clearance (CLint) were calculated.

Dopamine D1 = Dopamine D1 (Homo sapiens, UniProt P21728); assay: Off‐target panel: Dopamine D1 (DRX); assay type: cell-based
Procedure: (§1) GSK716 selectivity and PK properties were profiled in order to investigate the suitability of GSK716 for progression into in vivo studies and the potential for taking it forward as a clinical candidate for testing in humans. Since GSK716 results in loss of inhibitory activity of α1‐antitrypsin, the effect of the compound was assessed on other closely related serpins. […] Furthermore, there were no off‐target effects in a panel of assays considered predictive of known safety liabilities that precluded further development of GSK716 (Table EV1).

GABA-A = assay: Off‐target panel: GABA-A (Barracuda); assay type: cell-based
Procedure: as §1

hERG = hERG (Homo sapiens, UniProt Q12809); assay: Off‐target panel: hERG (Barracuda); assay type: cell-based; conditions: Blocker, read-out: Mean (PXC50) (converted)
Procedure: as §1

Histamine H1 = Histamine H1 (Homo sapiens, UniProt P35367); assay: Off‐target panel: Histamine H1; assay type: cell-based; conditions: Antagonist, read-out: Mean (PXC50)
Procedure: as §1

LCK = LCK (Homo sapiens, UniProt P06239); assay: Off‐target panel: LCK; assay type: biochemical; conditions: Inhibition, read-out: Mean (PXC50)
Procedure: as §1

NMDA (NR2B) = NMDA (NR2B) (Homo sapiens, UniProt Q05586+Q13224); assay: Off‐target panel: NMDA (NR2B); assay type: cell-based
Procedure: as §1

Serotonin 5HT1B = Serotonin 5HT1B (Homo sapiens, UniProt P28222); assay: Off‐target panel: Serotonin 5HT1B; assay type: cell-based
Procedure: as §1

Serotonin 5HT2C = target: T1, Serotonin 5HT2C (Homo sapiens, UniProt P28335); assay: Off‐target panel: Serotonin 5HT2C; assay type: cell-based
T1 sequence (P28335 33-458): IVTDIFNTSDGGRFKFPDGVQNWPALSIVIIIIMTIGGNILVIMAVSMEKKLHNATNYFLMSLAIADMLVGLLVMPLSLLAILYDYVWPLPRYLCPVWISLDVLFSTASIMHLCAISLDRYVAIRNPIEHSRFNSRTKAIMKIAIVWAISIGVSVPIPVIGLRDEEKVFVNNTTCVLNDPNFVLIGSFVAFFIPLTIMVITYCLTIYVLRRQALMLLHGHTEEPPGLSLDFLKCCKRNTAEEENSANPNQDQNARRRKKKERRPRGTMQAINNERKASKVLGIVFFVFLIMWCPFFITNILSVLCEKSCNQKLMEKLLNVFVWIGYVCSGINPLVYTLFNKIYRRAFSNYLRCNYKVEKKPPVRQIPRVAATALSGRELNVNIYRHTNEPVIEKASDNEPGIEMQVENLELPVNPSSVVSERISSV
Procedure: as §1

Serotonin 5HT1B, sequence (P28222 whole entry): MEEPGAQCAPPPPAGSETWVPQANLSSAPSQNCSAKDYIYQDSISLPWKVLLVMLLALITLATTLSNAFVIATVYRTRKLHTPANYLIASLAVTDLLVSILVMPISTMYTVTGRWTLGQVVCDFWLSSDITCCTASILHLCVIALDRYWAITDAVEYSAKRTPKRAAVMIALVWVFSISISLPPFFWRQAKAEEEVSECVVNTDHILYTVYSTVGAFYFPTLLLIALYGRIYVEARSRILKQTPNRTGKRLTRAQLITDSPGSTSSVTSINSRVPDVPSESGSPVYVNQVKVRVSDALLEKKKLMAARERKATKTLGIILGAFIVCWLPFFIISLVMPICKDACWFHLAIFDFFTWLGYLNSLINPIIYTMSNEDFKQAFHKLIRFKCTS
Histamine H1, sequence (P35367 whole entry): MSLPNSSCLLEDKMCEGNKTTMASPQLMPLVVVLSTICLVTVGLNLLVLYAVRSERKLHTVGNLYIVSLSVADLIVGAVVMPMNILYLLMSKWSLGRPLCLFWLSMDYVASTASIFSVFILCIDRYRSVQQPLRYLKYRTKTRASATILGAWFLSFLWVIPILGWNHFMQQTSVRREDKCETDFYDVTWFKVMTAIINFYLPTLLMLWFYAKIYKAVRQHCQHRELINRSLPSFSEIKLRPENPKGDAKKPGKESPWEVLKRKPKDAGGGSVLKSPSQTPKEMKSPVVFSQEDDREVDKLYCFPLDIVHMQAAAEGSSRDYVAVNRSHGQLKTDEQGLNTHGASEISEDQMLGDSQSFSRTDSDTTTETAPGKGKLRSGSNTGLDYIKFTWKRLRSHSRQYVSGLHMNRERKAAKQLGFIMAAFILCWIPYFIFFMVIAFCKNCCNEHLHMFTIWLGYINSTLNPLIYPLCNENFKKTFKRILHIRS
hERG, sequence (Q12809 whole entry): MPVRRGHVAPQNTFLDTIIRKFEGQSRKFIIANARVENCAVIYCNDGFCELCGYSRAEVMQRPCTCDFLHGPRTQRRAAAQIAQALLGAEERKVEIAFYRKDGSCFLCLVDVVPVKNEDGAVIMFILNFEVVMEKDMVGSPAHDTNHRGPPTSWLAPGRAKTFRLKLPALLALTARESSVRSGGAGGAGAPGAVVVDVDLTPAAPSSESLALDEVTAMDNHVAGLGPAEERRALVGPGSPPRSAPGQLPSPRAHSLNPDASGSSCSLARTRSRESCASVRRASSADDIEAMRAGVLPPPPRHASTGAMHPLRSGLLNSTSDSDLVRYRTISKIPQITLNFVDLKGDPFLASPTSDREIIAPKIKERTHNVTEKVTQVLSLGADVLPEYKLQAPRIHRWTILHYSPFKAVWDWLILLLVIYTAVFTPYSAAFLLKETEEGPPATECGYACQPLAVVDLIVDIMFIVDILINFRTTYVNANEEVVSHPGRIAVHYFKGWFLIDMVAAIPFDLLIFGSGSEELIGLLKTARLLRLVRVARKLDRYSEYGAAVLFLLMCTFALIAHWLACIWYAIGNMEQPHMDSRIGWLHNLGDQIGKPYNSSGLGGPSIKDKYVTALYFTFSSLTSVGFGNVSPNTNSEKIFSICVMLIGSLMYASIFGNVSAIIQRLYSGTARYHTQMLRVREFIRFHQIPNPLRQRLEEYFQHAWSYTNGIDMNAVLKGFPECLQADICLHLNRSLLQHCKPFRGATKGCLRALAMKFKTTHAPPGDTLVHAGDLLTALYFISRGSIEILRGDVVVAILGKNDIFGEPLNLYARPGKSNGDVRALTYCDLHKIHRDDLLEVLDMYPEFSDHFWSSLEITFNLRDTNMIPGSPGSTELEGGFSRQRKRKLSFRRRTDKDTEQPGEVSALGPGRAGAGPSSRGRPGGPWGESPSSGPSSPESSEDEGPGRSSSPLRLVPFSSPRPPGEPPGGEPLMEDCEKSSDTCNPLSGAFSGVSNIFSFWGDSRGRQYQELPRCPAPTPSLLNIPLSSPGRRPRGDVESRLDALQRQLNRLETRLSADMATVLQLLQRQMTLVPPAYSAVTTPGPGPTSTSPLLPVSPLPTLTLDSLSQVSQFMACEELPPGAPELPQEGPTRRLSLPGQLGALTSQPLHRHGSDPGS
LCK, sequence (P06239 whole entry, species assumed): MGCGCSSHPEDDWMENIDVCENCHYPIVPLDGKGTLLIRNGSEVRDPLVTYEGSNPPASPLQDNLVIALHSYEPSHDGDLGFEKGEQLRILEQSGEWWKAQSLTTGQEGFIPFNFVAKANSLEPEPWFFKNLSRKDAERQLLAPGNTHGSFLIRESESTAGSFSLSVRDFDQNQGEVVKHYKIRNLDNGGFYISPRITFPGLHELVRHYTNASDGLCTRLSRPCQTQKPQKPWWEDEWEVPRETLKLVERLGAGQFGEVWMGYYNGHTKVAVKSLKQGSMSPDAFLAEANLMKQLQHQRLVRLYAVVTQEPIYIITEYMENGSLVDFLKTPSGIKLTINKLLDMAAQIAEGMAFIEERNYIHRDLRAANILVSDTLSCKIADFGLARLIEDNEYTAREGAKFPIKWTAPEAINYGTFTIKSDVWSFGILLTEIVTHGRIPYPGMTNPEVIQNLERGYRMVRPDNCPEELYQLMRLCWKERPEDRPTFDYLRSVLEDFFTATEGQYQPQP
NMDA (NR2B), sequence (Q13224 27-1484, species assumed, other chains not shown): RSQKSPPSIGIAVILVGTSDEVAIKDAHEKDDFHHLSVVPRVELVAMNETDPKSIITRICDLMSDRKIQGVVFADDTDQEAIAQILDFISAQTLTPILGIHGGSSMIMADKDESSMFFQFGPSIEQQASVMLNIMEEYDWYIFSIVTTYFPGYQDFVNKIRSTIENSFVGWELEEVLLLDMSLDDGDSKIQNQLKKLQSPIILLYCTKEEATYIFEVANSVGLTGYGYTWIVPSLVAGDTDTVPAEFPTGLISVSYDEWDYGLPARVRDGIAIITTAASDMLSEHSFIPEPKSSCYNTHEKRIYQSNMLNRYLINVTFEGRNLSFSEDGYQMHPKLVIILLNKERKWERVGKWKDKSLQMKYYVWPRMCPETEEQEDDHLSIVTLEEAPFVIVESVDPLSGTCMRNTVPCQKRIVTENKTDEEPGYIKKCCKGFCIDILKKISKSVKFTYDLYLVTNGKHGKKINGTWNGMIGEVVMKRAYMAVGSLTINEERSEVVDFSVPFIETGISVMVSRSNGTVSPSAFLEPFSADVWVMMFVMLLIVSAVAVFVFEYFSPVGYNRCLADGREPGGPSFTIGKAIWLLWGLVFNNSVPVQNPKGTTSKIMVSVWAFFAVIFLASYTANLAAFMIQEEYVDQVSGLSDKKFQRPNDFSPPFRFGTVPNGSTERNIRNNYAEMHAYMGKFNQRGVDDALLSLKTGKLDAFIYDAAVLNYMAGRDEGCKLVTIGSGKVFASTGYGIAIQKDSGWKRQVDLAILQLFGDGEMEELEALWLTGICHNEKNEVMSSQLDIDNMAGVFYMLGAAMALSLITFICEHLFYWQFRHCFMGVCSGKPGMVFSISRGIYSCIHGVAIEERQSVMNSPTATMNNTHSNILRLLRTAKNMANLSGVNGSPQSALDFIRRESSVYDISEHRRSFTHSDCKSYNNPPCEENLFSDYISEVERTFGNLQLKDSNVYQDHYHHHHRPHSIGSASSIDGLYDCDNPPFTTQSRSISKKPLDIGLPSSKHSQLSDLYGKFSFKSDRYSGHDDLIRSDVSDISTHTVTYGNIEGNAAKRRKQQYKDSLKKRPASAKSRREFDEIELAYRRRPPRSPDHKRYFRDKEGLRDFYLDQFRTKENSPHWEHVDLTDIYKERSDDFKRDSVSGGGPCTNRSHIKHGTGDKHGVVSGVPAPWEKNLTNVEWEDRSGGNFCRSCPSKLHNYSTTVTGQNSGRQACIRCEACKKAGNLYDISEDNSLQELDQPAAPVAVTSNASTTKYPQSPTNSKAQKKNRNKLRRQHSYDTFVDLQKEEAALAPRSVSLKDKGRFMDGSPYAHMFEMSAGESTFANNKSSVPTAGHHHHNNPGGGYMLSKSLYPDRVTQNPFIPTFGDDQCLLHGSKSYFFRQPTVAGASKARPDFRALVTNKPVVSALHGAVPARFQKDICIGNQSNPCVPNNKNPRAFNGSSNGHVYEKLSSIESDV
Dopamine D1, sequence (P21728 whole entry): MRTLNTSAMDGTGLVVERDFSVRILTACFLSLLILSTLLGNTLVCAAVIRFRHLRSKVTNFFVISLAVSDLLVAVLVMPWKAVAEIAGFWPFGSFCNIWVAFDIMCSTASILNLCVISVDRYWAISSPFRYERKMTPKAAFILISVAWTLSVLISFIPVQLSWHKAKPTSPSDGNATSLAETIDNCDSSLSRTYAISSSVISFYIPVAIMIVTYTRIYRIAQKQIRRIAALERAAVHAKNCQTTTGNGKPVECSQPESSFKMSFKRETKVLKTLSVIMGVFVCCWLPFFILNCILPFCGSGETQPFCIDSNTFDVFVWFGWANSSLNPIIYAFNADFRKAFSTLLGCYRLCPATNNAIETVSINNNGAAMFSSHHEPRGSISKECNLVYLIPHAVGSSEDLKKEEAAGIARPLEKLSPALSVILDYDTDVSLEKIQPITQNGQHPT

CCC[C@@H](NC(=O)c1cccc2c1CC(=O)N2)[C@@H](O)c1cccc(F)c1C [GSK716]
metabolic clearance in mouse hepatocytes (mouse hepatocytes): 4.56 ml/min/g tissue
IC50 (Dopamine D1): > 100 µM
Mean (PXC50) (GABA-A; Agonist): <4
Mean (PXC50) (GABA-A; Antagonist): <4
Mean (PXC50) (GABA-A; Pos Mod): <4
IC50 (hERG): 15.8 µM
IC50 (Histamine H1): > 25.1 µM
IC50 (LCK): > 31.6 µM
IC50 (NMDA (NR2B)): > 50.1 µM
EC50 (Serotonin 5HT1B): > 100 µM
IC50 (Serotonin 5HT1B): > 100 µM
EC50 (Serotonin 5HT2C): > 25.1 µM
IC50 (Serotonin 5HT2C): > 25.1 µM
